Test results from the supplement of paper PMC10307832.

Key:
Experiment in all cases: relative viability (nuclei count vs DMSO), 5 days (fraction); higher = more cells survive
NCI-H1437 = conditions: first compound 1 µM
In short: (§1)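 Relative viability divides the nuclei count in treated wells by that in vehicle wells. Lung cancer cell lines were seeded in 1536-well plates, dosed by pin tool the next day, and fixed and stained after 5 days in one step with final 0.05% Triton X-100, 1% formaldehyde and 1 ug/ml Hoechst. Dosing was a single drug or a fixed anchor-drug dose plus five library-drug doses (not always all listed) in √10 steps, and values are medians of duplicate plates imaged at 4×.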

NCI-H1666 = system: NCI-H1666
In short: as §1

NCI-H1792 = system: NCI-H1792
In short: as §1

NCI-H1975 = system: NCI-H1975
In short: as §1

NCI-H23 = system: NCI-H23
In short: as §1

NCI-H358 = system: NCI-H358
In short: as §1

NCI-H441 = system: NCI-H441
In short: as §1

NCI-H596 = system: NCI-H596
In short: as §1

NCI-H650 = system: NCI-H650
In short: as §1

NCI-H838 = system: NCI-H838
In short: as §1

SK-MES-1 = system: SK-MES-1
In short: as §1

## O=c1cc(N2CCOCC2)oc2c(-c3cccc4c3sc3ccccc34)cccc12 + C[C@]1(O)C[C@@H](c2nc(-c3ccc4ccc(-c5ccccc5)nc4c3)c3c(N)nccn32)C1 [Linsitinib] (partner 1 µM)
NCI-H1437
  relative viability: 0.979
NCI-H1666; first compound 0.01 µM
  relative viability: 0.735
NCI-H1666; first compound 0.03162 µM
  relative viability: 0.803
NCI-H1666; first compound 0.1 µM
  relative viability: 0.972
NCI-H1666; first compound 0.3162 µM
  relative viability: 0.776
NCI-H1666; first compound 1 µM
  relative viability: 0.636
NCI-H1792; first compound 0.01 µM
  relative viability: 0.514
NCI-H1792; first compound 0.03162 µM
  relative viability: 0.513
NCI-H1792; first compound 0.1 µM
  relative viability: 0.564
NCI-H1792; first compound 0.3162 µM
  relative viability: 0.502
NCI-H1792; first compound 1 µM
  relative viability: 0.574
NCI-H1975; first compound 0.01 µM
  relative viability: 0.833
NCI-H1975; first compound 0.03162 µM
  relative viability: 0.922
NCI-H1975; first compound 0.1 µM
  relative viability: 0.94
NCI-H1975; first compound 0.3162 µM
  relative viability: 0.929
NCI-H1975; first compound 1 µM
  relative viability: 1
NCI-H23; first compound 0.01 µM
  relative viability: 0.623
NCI-H23; first compound 0.03162 µM
  relative viability: 0.641
NCI-H23; first compound 0.3162 µM
  relative viability: 0.663
NCI-H23; first compound 1 µM
  relative viability: 0.476
NCI-H358; first compound 0.01 µM
  relative viability: 0.631
NCI-H358; first compound 0.03162 µM
  relative viability: 0.781
NCI-H358; first compound 0.1 µM
  relative viability: 0.731
NCI-H358; first compound 0.3162 µM
  relative viability: 0.812
NCI-H358; first compound 1 µM
  relative viability: 0.736
NCI-H441; first compound 0.01 µM
  relative viability: 0.53
NCI-H441; first compound 0.03162 µM
  relative viability: 0.518
NCI-H441; first compound 0.1 µM
  relative viability: 0.582
NCI-H441; first compound 0.3162 µM
  relative viability: 0.555
NCI-H441; first compound 1 µM
  relative viability: 0.594
NCI-H596; first compound 0.01 µM
  relative viability: 1.14
NCI-H596; first compound 0.03162 µM
  relative viability: 1.02
NCI-H596; first compound 0.1 µM
  relative viability: 1.19
NCI-H596; first compound 0.3162 µM
  relative viability: 0.968
NCI-H596; first compound 1 µM
  relative viability: 0.921
NCI-H650; first compound 0.01 µM
  relative viability: 0.794
NCI-H650; first compound 0.03162 µM
  relative viability: 1.03
NCI-H650; first compound 0.3162 µM
  relative viability: 1.14
NCI-H650; first compound 1 µM
  relative viability: 0.679
NCI-H838; first compound 0.01 µM
  relative viability: 1.05
NCI-H838; first compound 0.03162 µM
  relative viability: 1.03
NCI-H838; first compound 0.1 µM
  relative viability: 0.951
NCI-H838; first compound 0.3162 µM
  relative viability: 0.931
NCI-H838; first compound 1 µM
  relative viability: 0.916
SK-MES-1; first compound 0.01 µM
  relative viability: 1.17
SK-MES-1; first compound 0.03162 µM
  relative viability: 1.02
SK-MES-1; first compound 0.1 µM
  relative viability: 1.05
SK-MES-1; first compound 0.3162 µM
  relative viability: 1.09
SK-MES-1; first compound 1 µM
  relative viability: 1.01
